Assay results: patent EP0201420A1, “2-(2-Acetamido-2-deoxy-3-O-D-glucopyranosyl)-alkanoyl-aminoacyl-nor leucin glycopeptides or derivatives of these glycopeptides, and immunoadjuvant compositions containing them” (ANVAR Agence Nationale de Valorisation de la Recherche, priority 1985, dated 1986)

Each compound was assayed on globules rouges de mouton (assay: Immunosuppression test: high dose given before sheep red blood cells, haemolytic plaques of splenocytes counted (Cunningham method)). Conditions: 1 mg per mouse 2 days before 10^8 sheep red blood cells; splenocytes taken 4 days after; experiment repeated 3 times.
Type: in vivo, souris
Protocol: Dans l'expérience qui figure au tableau Ibis et qui a été répétéa 3 fois, le MDP et les autres substances ont été injectés à des souris à une dose 10 ou 20 fois plus élevée que d'habitude (1 mg) 2 jours avant l'injection de 10^8 globules rouges de mouton. Les splénocytes ont été pélevés et mis en culture 4 jours après l'injection de globules rouges de mouton et le nombre de plages hémolytiques dosées selon la méthode de Cunningham.

Row | SMILES | inhibition de la production d'anticorps (nombre de plages hémolytiques)
1 | CC(=O)N[C@H]1C(O)O[C@H](CO)[C@@H](O)[C@@H]1O[C@H](C)C(=O)N[C@@H](C)C(=O)N[C@H](CCC(=O)O)C(N)=O (stereo partly drawn) [MDP, N-acétyl-muramyl-L-alanyl-D-isoglutamine] | inhibe totalement la production d'anticorps
2 | CCCCOC(=O)[C@@H](CCC(N)=O)NC(=O)[C@H](C)NC(=O)[C@@H](C)O[C@H]1[C@H](O)[C@@H](CO)OC(O)[C@@H]1NC(C)=O (stereo partly drawn) [murabutide] | inhibe totalement la production d'anticorps

What follows are compounds tested on réponse humorale de la souris swiss femelle à la sérumalbumine bovine (assay: Immunoadjuvant activity: humoral antibody response to bovine serum albumin, measured by passive haemagglutination). Conditions: 100 µg per mouse s.c. with 0,5 mg bovine serum albumin in aqueous solution; primary response day 28, secondary response day 36.
Type: in vivo
Protocol: L'activité immunoadjuvante a été étudiée en mettant en jeu la réponse humorale de la souris swiss femelle à la sérumalbumine bovine.
Des groupes de huit souris âgées de 2 mois reçoivent par voie sous-cutanée 0,5 mg de sérumalbumine bovine avec ou sans les substances à tester, à raison de 100 µg par souris. Les administrations sont faites en solution aqueuse.
Au jour 28, on effectue des prélèvements du sérum sanguin sur les souris traitées et la réponse primaire en anticorps est déterminée par hémagglutination passive en utilisant des hématies de moutons traitées à la formaline et recouvertes de l'antigène étudié selon la méthode décrite par A. A. HIRATA et M.V. BRANDISSE (5. immunol.100, 541 - 648, 1968). Au jour 30 les souris reçoivent une injection de rappel avec les antigènes seuls (100 µg par souris) et au jour 36 on mesure la réponse secondaire induite par la même technique de mesure .
Les résultats de ces essais figurent dans le tableau 1 qui suit. Ce tableau contient également les résultats mesurés dans les mêmes conditions chez les animaux témoins et chez des animaux qui ont été traités de la même manière avec le MDP à titre de substance de comparaison.

Row | SMILES | activité immunoadjuvante
3 | CCCC[C@@H](NC(=O)[C@H](C)NC(=O)[C@@H](C)O[C@H]1[C@H](O)[C@@H](CO)OC(O)[C@@H]1NC(C)=O)C(N)=O (stereo partly drawn) [compound 1] | n'a pas témoigné d'une activité spécifique
4 | CCCCOC(=O)[C@@H](CCCC)NC(=O)[C@H](C)NC(=O)[C@@H](C)O[C@H]1[C@H](O)[C@@H](CO)OC(O)[C@@H]1NC(C)=O (stereo partly drawn) [compound 2] | une activité qui se rapproche sensiblement
5 | CCCCOC(=O)[C@@H](CCCC)NC(=O)[C@H](C)NC(=O)CO[C@H]1[C@H](O)[C@@H](CO)OC(O)[C@@H]1NC(C)=O (stereo partly drawn) [compound 5] | une activité qui se rapproche sensiblement
6 | CCCC[C@@H](NC(=O)[C@H](C)NC(=O)[C@@H](C)O[C@H]1[C@H](O)[C@@H](CO)OC(O)[C@@H]1NC(C)=O)C(=O)OC (stereo partly drawn) [compound 6] | une activité qui se rapproche sensiblement
